Test [1] has as its target T1, Beta-lactamase (Escherichia coli K-12, UniProt P00811).
Description: Aggregate based-inhibition of Escherichia coli AmpC beta lactamase using stringent assay conditions in presence of 0.01% Triton X-100 detergent
For test [2], the target named is T1, Beta-lactamase. Briefly: Inhibition of Escherichia coli AmpC beta lactamase using relaxed assay conditions in presence of 0.00001% Triton X-100 detergent.

Data on 10 compounds can be found in ChEMBL document CHEMBL1139872, “A high-throughput screen for aggregation-based inhibition in a large compound library” (J Med Chem, 2007).

T1 sequence (P00811 whole entry): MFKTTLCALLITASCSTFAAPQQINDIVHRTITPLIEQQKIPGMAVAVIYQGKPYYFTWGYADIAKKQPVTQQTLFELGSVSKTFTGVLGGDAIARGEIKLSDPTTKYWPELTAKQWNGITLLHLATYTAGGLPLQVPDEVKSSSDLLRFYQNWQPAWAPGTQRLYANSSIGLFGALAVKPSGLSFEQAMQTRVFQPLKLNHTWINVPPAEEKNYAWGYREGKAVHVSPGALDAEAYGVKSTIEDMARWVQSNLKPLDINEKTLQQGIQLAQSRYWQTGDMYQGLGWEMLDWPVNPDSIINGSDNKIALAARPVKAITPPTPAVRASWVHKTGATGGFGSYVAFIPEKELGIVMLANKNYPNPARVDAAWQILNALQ

One may read the IC50 as the concentration needed to halve the response being measured. For `Fc1c(F)c(F)c(CSc2nc3ccccc3[nH]2)c(F)c1F`, the IC50 on Beta-lactamase [1] was above 300 µM; at Beta-lactamase [2], 130 µM.
The like results for `Cc1ccc2nc(-c3ccccc3)cc(O)c2c1` were, in that order, above 100 µM and above 100 µM.
For `O=C(Nc1ccc(Oc2ccc(NC(=O)c3ccco3)c(NC(=O)c3ccco3)c2)cc1)c1ccco1`, the IC50 on Beta-lactamase [1] turned out to be 40 µM; at Beta-lactamase [2] it was 20 µM.
The like results for `O=C(Nc1cccc2ccccc12)c1ccc(Br)o1` were, in that order, above 200 µM and 120 µM.
The like results for `COc1c(F)c(F)c(C(=O)Nc2ccc(NC(=O)c3ccco3)cc2)c(F)c1F` were, in that order, above 66 µM and 20 µM.
With `Cc1cccc(OCC(=O)Nc2cccc(-c3nnc(-c4ccccc4)o3)c2)c1C`, the IC50 against Beta-lactamase [1] was above 66 µM; on Beta-lactamase [2], 13 µM.
The like results for `O=c1[nH]c2cc(Cl)ccc2c(O)c1-c1cccc(Oc2ccccc2)c1` were, in that order, 126 µM and 22 µM.
Turning to `Clc1ccccc1C(c1ccccc1)(c1ccccc1)n1ccnc1` [CLOTRIMAZOLE], the figures for the 50% inhibitory concentration (IC50) against Beta-lactamase [1] and on Beta-lactamase [2] were 150 µM and 35 µM, respectively.
The like results for `Cc1cc2c(C(C)C)c(O)c(O)c(C=O)c2c(O)c1-c1c(C)cc2c(C(C)C)c(O)c(O)c(C=O)c2c1O` [GOSSYPOL] were, in that order, 82 µM and 46 µM.
For the compound `Clc1ccc(CSC(Cn2ccnc2)c2ccc(Cl)cc2Cl)cc1` (stereo not given) [SULCONAZOLE], the IC50 against Beta-lactamase [1] amounted to 100 µM; at Beta-lactamase [2], 20 µM.
